“Also recorded” adds a separate entry of the source.
Tests used:
[1] = tested on: convulsions caused by pentylene tetrazole; assay: Protection against convulsions caused by pentylene tetrazole (PTZ) in adult female Wistar rats after oral administration; type: in vivo, rat (Wistar; parameters: key to Chi2 difference between the doses (100 and 200 mgr/kg) / Chi2 difference between the times: NS: not significant; conditions: for Anticonvulsive activity compared with DPH: in comparison with diphenylhydantoin; for Chi2 difference between the doses (100 and 200 mgr/kg): 100 vs 200 mgr/kg; for Chi2 difference between the times: 1 hour vs 2 hours + 4 hours; for Chi2 difference between the times / Chi2 difference between DPH and deuterated DPH: * P < 0.05, ** P < 0.01; for Protection of rats against the convulsive effect of PTZ (number of protected animals / total number of animals): PTZ 100 mgr/kg intraperitoneally
Description: The active substances according to the invention were tested in order to examine their activity and their effects in comparison with known diphenylhydantoin (DPH). In these tests as follows, 5-(paradeuterophenyl)-5-phenylhydantoin will be designated by DPH-d1 and 5-phenyl-d5 -5-phenylhydantoin by DPH-d5.
To examine the anticonvulsive activity of these substances, they were subjected to testing as to protection against convulsions caused by pentylene tetrazole on adult female rat (Wistar strain: 200-220 gr). One, two or four hours after oral administration of hydantoins (100 and 200 mgr/kg: solution in dimethyl sulfoxide/propylene glycol), animals have received a dose of 100 mgr/kg of pentylene tetrazole (PTZ) intraperitonally, then they were maintained under observation for 1 hour. The absence of appearance of convulsions was considered as a positive response. The results are expressed in the following table I as the ratio between the number of protected animals and the total number of animals.
The research of significant differences has been made on the following aspects: between DPH and deuterated DPH at 1 hour at doses of 100 and 200 mgr/kg, between DPH and deuterated DPH at any time and at a dose of 100 mgr/kg, between doses of 100 and 200 mgr/kg and between the times.

[2] = Accumulation in the cerebral tissue (general statement); type: in vivo; conditions: in comparison with diphenylhydantoin
Description: (§1) The contents of the various tissues in DPH, DPH-d1 and DPH-d5 have been determined at two times after oral administration (male mice, female rats, titration by gaseous chromatography).
(§2) The whole results are mentioned in the following table III. The indicated values represent the ratio of active substance concentrations in the brain and blood. After oral administration, these values as well in rat as in mouse show a trend, which is marked to very marked, to be higher for deuterated DPH than for DPH itself.

[3] = Repartition in tissues (brain/blood ratio) after oral administration, rats, titration by gaseous chromatography; type: in vivo; conditions: female rat ± 200 gr, oral 100 mg/kg; for Kp at 1 h: after 1 hour; for Kp at 2 h: after 2 hours
Description: as §1, §2

[4] = Repartition in tissues (brain/blood ratio) after oral administration, mice, titration by gaseous chromatography; type: in vivo; conditions: mouse, 100 mg/kg, male mice 20-25gr, oral 100 mgr/kg; for Kp at 2 h: after 2 hours; for Kp at 24 h: after 24 hours
Description: as §1, §2

Structure (SMILES)	Anticonvulsive activity compared with DPH [1]	Accumulation in the cerebral tissue [2]	Kp at 1 h [3]	Kp at 2 h [3]	Chi2 difference between the doses (100 and 200 mgr/kg) [1]	Chi2 difference between the times [1]	Protection of rats against the convulsive effect of PTZ (number of protected animals / total number of animals) ([1]; oral 100 mgr/kg, 1 hour)	Protection of rats against the convulsive effect of PTZ (number of protected animals / total number of animals) ([1]; oral 100 mgr/kg, 2 hours)	Protection of rats against the convulsive effect of PTZ (number of protected animals / total number of animals) ([1]; oral 100 mgr/kg, 4 hours)	Protection of rats against the convulsive effect of PTZ (number of protected animals / total number of animals) ([1]; oral 200 mgr/kg, 1 hour)	Kp at 2 h [4]	Kp at 24 h [4]	Chi2 difference between DPH and deuterated DPH ([1]; at 1 hour, 100 mgr/kg)	Chi2 difference between DPH and deuterated DPH ([1]; at 1 hour, 200 mgr/kg)	Chi2 difference between DPH and deuterated DPH ([1]; at any time, 100 mgr/kg)	Anticonvulsive activity compared with DPH ([1]; listed as (R,S)-5-phenyl-d5 -5-phenylhydantoin)
[2H]c1c([2H])c([2H])c(C2(c3c([2H])c([2H])c([2H])c([2H])c3[2H])NC(=O)NC2=O)c([2H])c1[2H] [5,5-di-(phenyl-d5)-hydantoin]	higher anticonvulsive activity than diphenylhydantoin	accumulation in the cerebral tissue more favorably														
O=C1NC(=O)C(c2ccccc2)(c2ccccc2)N1 [DPH, 5,5-diphenylhydantoin, reference compound]			0.9 ± 0.13	5.91 ± 0.93	NS	NS	4/25	2/10	0/10	5/35	1.45 ± 0.1	2.09 ± 0.22				
[2H]c1ccc(C2(c3ccccc3)NC(=O)NC2=O)cc1 (stereo not shown) [DPH-d1, 5-(paradeuterophenyl)-5-phenylhydantoin]	better protects the animals against the convulsive effect of PTZ than DPH; also recorded: higher anticonvulsive activity		2.1 ± 0.41	15.5 ± 3.7	NS	3.93	9/14	4/10	2/10	11/30			9.42	4.36	9.40	
[2H]c1c([2H])c([2H])c(C2(c3ccccc3)NC(=O)NC2=O)c([2H])c1[2H] (stereo not shown) [DPH-d5, 5-phenyl-d5-5-phenylhydantoin]	A difference in the same direction, close to the significance limit; also recorded: higher anticonvulsive activity	accumulation in the cerebral tissue more favorably	2.15 ± 0.37	4.49 ± 1.33	NS	3.58	7/20	2/10	0/10	11/35	2.35 ± 0.26	2.97 ± 0.3	2.17	2.92	1.22	higher anticonvulsive activity than diphenylhydantoin

— patent US4304782A, “Psychotropic deuterated derivatives of phenylhydantoin and pharmaceutical compositions comprising such derivatives” (Region Wallonne, priority 1979, dated 1981)
